Measured values reported in ChEMBL document CHEMBL4825693, “Discovery of novel N-sulfonamide-tetrahydroisoquinolines as potent retinoic acid receptor-related orphan receptor γt agonists” (Eur J Med Chem, 2021).

Assays:
[1] = target: T1, Nuclear receptor ROR-gamma (Mus musculus) (UniProt P51450); test: Agonist activity at RORgammat in C57 mouse CD4+ T cells assessed as induction of Th17 cells differentiation by measuring increase in IL17 production measured after 4 days by flow cytometry analysis relative to control; assay type: cell-based; conditions: CD4+ve Th, filed as agonist, time 4.0 day
T1 sequence (whole entry): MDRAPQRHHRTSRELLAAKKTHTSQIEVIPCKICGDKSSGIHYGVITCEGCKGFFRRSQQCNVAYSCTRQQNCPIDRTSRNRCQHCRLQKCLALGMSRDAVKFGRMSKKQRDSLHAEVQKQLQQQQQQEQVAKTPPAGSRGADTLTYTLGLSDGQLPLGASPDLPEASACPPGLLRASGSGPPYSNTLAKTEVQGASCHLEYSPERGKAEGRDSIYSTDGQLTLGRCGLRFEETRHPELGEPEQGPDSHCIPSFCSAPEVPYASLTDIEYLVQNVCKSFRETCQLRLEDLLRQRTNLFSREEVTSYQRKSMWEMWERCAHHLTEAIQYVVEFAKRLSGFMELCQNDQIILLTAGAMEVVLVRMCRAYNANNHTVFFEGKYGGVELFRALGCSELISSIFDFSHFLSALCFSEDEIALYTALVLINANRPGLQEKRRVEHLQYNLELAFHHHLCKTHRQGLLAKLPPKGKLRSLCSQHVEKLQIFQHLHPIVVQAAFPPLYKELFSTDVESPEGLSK

[2] = target: T2, Nuclear receptor ROR-gamma (Homo sapiens, UniProt P51449); test: Agonist activity at europium-labeled human RORgammat LBD assessed as induction of XL665-labeled co-activator SRC1 recruitment incubated for 1 hr by dual FRET assay
T2 sequence (P51449 whole entry): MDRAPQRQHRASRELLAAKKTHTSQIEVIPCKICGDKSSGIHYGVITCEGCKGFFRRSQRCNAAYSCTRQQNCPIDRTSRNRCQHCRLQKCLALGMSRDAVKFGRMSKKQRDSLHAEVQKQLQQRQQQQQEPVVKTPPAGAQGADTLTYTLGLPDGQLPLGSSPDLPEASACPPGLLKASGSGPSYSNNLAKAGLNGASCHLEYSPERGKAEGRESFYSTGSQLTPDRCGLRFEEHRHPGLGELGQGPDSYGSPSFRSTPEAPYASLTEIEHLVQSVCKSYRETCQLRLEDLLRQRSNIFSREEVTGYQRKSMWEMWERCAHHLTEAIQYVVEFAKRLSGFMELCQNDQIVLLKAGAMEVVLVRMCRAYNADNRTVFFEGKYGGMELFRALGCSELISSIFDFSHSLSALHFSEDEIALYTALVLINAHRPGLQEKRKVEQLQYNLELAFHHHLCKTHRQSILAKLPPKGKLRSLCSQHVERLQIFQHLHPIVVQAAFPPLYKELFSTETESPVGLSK

[3] = target: T2, Nuclear receptor ROR-gamma; test: Agonist activity at human RORgammat LBD expressed in HEK293T cells incubated for 16 to 20 hrs by Gal4-luciferase reporter gene assay; assay type: cell-based
[4] = target: T2, Nuclear receptor ROR-gamma; test: Inverse agonist activity at europium-labeled human RORgammat LBD assessed as inhibition of XL665-labeled co-activator SRC1 recruitment incubated for 1 hr by dual FRET assay
[5] = target: T3, Nuclear receptor ROR-gamma (Homo sapiens) (UniProt P51449); test: Inverse agonist activity at europium-labeled human RORgammat LBD assessed as inhibition of XL665-labeled co-activator SRC1 recruitment incubated for 1 hr by dual FRET assay relative to control; conditions: concentration not given here
T3 sequence (whole entry): T2 sequence (P51449 whole entry)

CC(=O)N1CCN(c2ccc3c(c2)CCN(S(=O)(=O)N(C)Cc2ccccc2Cl)C3)CC1
max activation [1]: 93% | EC50 [2]: 982 nM | EC50 [3]: 740 nM

CC(=O)N1CCN(c2ccc3c(c2)CCN(S(=O)(=O)N(C)Cc2ccccc2)C3)CC1
EC50 [2]: 560 nM

CC(=O)N1CCN(c2ccc3c(c2)CCN(S(=O)(=O)N(C)Cc2cccc(F)c2)C3)CC1
EC50 [2]: 546 nM

CC(=O)N1CCN(c2ccc3c(c2)CCN(S(=O)(=O)N(C)CCCc2ccccc2)C3)CC1
EC50 [2]: 570 nM

CC(=O)N1CCN(c2ccc3c(c2)CCN(S(=O)(=O)N(C)Cc2ccc(F)cc2)C3)CC1
EC50 [2]: 1020 nM

CC(=O)N1CCN(c2ccc3c(c2)CCN(S(=O)(=O)N(C)CCc2ccccc2)C3)CC1
EC50 [2]: 2230 nM

CC(=O)N1CCN(c2ccc3c(c2)CCN(S(=O)(=O)N(C)Cc2ccccn2)C3)CC1
EC50 [2]: 12300 nM

CC(=O)N1CCN(c2ccc3c(c2)CCN(S(=O)(=O)N(C)Cc2ccccc2F)C3)CC1
EC50 [2]: 358 nM

CC(=O)N1CCN(c2ccc3c(c2)CCN(S(=O)(=O)N(C)Cc2c(F)cccc2Cl)C3)CC1
max activation [1]: 167% | EC50 [2]: 21 nM | EC50 [3]: 190 nM

CC(=O)N1CCN(c2ccc3c(c2)CCN(S(=O)(=O)N(C)Cc2cc(F)ccc2F)C3)CC1
EC50 [2]: 148 nM

CC(=O)N1CCN(c2ccc3c(c2)CCN(S(=O)(=O)N(C)Cc2cccc(Cl)c2)C3)CC1
EC50 [2]: 138 nM

CC(=O)N1CCN(c2ccc3c(c2)CCN(S(=O)(=O)N(C)Cc2ccc(C(F)(F)F)cc2)C3)CC1
EC50 [4]: 1980 nM | inhibition [5]: 25.8%

CC(=O)N1CCN(c2ccc3c(c2)CCN(S(=O)(=O)N(C)Cc2cccc(C)c2)C3)CC1
EC50 [2]: 215 nM

CC(=O)N1CCN(c2ccc3c(c2)CCN(S(=O)(=O)N(C)Cc2c(F)cccc2Cl)C3)[C@H](C)C1
EC50 [2]: 23 nM

CC(=O)N1CCN(c2ccc3c(c2)CCN(S(=O)(=O)N(C)c2nccc(C(F)(F)F)n2)C3)CC1
EC50 [2]: 6240 nM

CC(=O)N1CCN(c2ccc3c(c2)CCN(S(=O)(=O)N(C)Cc2ccccc2C)C3)CC1
EC50 [2]: 221 nM

CC(=O)N1CCN(c2ccc3c(c2)CCCN3S(=O)(=O)N(C)Cc2ccccc2Cl)CC1
IC50 [4]: 167 nM
